Test results reported in ChEMBL document CHEMBL1139814, “Conformationally restricted homotryptamines. Part 4: Heterocyclic and naphthyl analogs of a potent selective serotonin reuptake inhibitor” (Bioorg Med Chem Lett, 2007).
pIC50: −log10 of the molar value. Each block holds one molecule with its values, some of them ahead of it.

Experiments:
[1] = molecular target: Sodium-dependent serotonin transporter (Homo sapiens, UniProt P31645); experiment: Inhibition of human SERT
[2] = molecular target: T1, Sodium-dependent dopamine transporter (Homo sapiens, UniProt Q01959); experiment: Inhibition of DAT at 1 uM
[3] = molecular target: T1, Sodium-dependent dopamine transporter; experiment: Inhibition of DAT
[4] = molecular target: T2, Sodium-dependent noradrenaline transporter (Homo sapiens, UniProt P23975); experiment: Inhibition of NET at 1 uM
[5] = molecular target: T2, Sodium-dependent noradrenaline transporter; experiment: Inhibition of NET

T2 sequence (P23975 whole entry): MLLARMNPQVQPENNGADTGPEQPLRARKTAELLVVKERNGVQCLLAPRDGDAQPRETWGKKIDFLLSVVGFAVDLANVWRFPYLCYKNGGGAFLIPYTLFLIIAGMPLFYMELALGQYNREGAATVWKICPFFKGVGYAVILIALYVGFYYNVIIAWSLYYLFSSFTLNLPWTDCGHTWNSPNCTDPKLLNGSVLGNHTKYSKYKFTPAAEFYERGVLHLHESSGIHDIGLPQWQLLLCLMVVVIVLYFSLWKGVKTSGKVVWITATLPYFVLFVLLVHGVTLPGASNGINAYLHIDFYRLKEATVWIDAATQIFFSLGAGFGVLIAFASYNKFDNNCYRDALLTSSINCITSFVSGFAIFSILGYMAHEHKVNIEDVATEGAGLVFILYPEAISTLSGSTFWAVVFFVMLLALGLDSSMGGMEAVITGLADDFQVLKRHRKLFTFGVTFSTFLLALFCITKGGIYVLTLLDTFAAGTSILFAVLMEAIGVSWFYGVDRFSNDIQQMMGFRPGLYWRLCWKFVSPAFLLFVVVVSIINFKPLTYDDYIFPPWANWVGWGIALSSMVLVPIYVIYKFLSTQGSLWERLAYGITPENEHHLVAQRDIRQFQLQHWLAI
Sodium-dependent serotonin transporter, sequence (P31645 whole entry): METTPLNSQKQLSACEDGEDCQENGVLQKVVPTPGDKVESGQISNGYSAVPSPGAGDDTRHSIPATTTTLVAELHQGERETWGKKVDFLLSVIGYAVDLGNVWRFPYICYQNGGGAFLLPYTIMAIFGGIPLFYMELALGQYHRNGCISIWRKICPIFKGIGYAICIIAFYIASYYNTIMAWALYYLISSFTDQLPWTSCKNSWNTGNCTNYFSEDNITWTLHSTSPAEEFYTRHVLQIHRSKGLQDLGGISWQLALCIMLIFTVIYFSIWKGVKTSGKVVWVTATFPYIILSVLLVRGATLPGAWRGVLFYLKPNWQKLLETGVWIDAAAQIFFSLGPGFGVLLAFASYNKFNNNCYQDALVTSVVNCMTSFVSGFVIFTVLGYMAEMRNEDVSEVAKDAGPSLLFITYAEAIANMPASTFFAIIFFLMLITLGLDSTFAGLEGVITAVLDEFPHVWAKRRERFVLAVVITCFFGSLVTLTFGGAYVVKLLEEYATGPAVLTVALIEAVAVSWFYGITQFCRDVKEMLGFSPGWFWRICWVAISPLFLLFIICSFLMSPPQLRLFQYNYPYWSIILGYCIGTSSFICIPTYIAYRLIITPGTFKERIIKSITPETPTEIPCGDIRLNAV
T1 sequence (Q01959 whole entry): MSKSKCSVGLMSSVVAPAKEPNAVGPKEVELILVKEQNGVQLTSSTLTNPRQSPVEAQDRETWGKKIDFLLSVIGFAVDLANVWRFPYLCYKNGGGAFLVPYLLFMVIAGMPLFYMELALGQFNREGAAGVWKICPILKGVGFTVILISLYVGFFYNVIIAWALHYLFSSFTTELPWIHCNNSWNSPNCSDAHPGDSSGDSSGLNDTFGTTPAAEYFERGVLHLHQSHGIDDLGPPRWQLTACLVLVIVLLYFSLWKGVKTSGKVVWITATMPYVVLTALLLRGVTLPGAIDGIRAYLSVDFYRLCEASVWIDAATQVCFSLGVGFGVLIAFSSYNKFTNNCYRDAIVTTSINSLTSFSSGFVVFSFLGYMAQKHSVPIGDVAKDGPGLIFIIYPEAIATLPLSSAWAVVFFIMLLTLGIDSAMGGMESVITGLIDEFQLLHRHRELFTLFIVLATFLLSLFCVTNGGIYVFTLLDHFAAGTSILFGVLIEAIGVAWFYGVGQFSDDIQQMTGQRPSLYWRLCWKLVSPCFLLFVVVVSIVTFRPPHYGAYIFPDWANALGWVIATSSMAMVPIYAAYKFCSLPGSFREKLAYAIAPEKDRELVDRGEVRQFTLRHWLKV

SMILES: CN(C)C[C@H]1C[C@@H]1c1c[nH]c2ccc(C#N)cc12
pIC50 [1]: 9.32

SMILES: CNCC1CC1c1cccc2cc(C#N)ccc12 (stereo unspecified)
pIC50 [1]: 7.77

SMILES: CCNCC1CC1c1cccc2cc(C#N)ccc12 (stereo unspecified)
pIC50 [1]: 7.43

SMILES: CCN(CC)CC1CC1c1cccc2cc(C#N)ccc12 (stereo unspecified)
pIC50 [1]: 7.17

SMILES: CNCC1CC1c1ccc2ccccc2c1 (stereo unspecified)
pIC50 [1]: 7.28

SMILES: CCN(CC)CC1CC1c1ccc2ccccc2c1 (stereo unspecified)
pIC50 [1]: 6.26

SMILES: CCN(C)CC1CC1c1cccc2ccccc12 (stereo unspecified)
pIC50 [1]: 7.24

SMILES: CN(C)CC1CC1c1cccc2cc(C#N)ccc12 (stereo unspecified)
inhibition [2]: 16% | pIC50 [3]: 5.06 | inhibition [4]: 20% | pIC50 [1]: 8.39 | pIC50 [5]: 4.72

SMILES: CN(C)CC1CC1c1ccc2cc(C#N)c(C#N)cc2c1 (stereo unspecified)
inhibition [2]: 80% | inhibition [4]: 82% | pIC50 [1]: 8.23

SMILES: CN(C)CC1CC1c1cncc2ccccc12 (stereo unspecified)
pIC50 [1]: < 6.00

SMILES: CN(C)CC1CC1c1c[nH]c2ccc(C#N)cc12 (racemic)
pIC50 [1]: 8.96

SMILES: CN(C)C[C@H]1C[C@@H]1c1c[nH]c2ccc(F)cc12 (racemic)
pIC50 [1]: 8.39

SMILES: CN(C)C[C@H]1C[C@@H]1c1c[nH]c2ccccc12 (racemic)
pIC50 [1]: 7.00

SMILES: CN(C)CC1CC1c1c[nH]c2ncccc12 (racemic)
pIC50 [1]: 6.39

SMILES: CN(C)CC1CC1c1n[nH]c2ccc(C#N)cc12 (racemic)
inhibition [2]: 0% | pIC50 [3]: 4.36 | inhibition [4]: -4.9% | pIC50 [1]: 7.15 | pIC50 [5]: < 4.00

SMILES: CN(C)CC1CC1c1cnc2ccccn12 (racemic)
pIC50 [1]: < 6.00

SMILES: CN(C)CC1CC1c1cccc2ccccc12 (single isomer, unassigned; (+)) [listing 2 of 2 here]
inhibition [2]: 12% | inhibition [4]: 2.3%

SMILES: CN(C)CC1CC1c1cccc2ccccc12 (single isomer, unassigned; (-))
pIC50 [1]: 6.77

SMILES: CN(C)CC1CC1c1csc2ccccc12 (stereo in doubt; 6)
pIC50 [1]: 7.60

More lines, now with the values ahead:

pIC50 [1]: 6.89
SMILES: CN(C)CC1CC1c1cnc2ccccc2c1 (stereo unspecified)

inhibition [2]: 41% | pIC50 [3]: 5.96 | inhibition [4]: 69% | pIC50 [1]: 7.89 | pIC50 [5]: 6.25
SMILES: CN(C)CC1CC1c1ccc2cc(C#N)ccc2c1 (stereo unspecified)

pIC50 [1]: 7.80
SMILES: CN(Cc1ccccc1)CC1CC1c1cccc2cc(C#N)ccc12 (stereo unspecified)

inhibition [2]: 9.5% | pIC50 [3]: 4.92 | inhibition [4]: 25% | pIC50 [1]: 7.32 | pIC50 [5]: 4.41
SMILES: CN(C)CC1CC1c1cccc2c(C#N)cccc12 (stereo unspecified)

pIC50 [1]: 6.51
SMILES: CCN(C)CC1CC1c1ccc2ccccc2c1 (stereo unspecified)

pIC50 [1]: 7.29
SMILES: N#Cc1ccc2c(C3CC3CN3CCCC3)cccc2c1 (stereo unspecified)

pIC50 [1]: 6.92
SMILES: CCN(CC)CC1CC1c1cccc2ccccc12 (stereo unspecified)

pIC50 [1]: 7.05
SMILES: CNCC1CC1c1cccc2ccccc12 (stereo unspecified)

inhibition [2]: 83% | pIC50 [3]: 6.59 | inhibition [4]: 68% | pIC50 [1]: 7.08 | pIC50 [5]: 6.15
SMILES: CN(C)CC1CC1c1ccc2ccc(C#N)cc2c1 (racemic)

pIC50 [3]: 5.62 | pIC50 [1]: 8.07 | pIC50 [5]: 5.06
SMILES: CN(C)CC1CC1c1ccc2ccccc2c1 (single isomer, unassigned; (+)) [listing 1 of 2 here]

pIC50 [3]: 4.48 | pIC50 [1]: 7.74 | pIC50 [5]: 4.17
SMILES: CN(C)CC1CC1c1cccc2ccccc12 (single isomer, unassigned; (+)) [listing 1 of 2 here]

inhibition [2]: 31% | inhibition [4]: 18%
SMILES: CN(C)CC1CC1c1ccc2ccccc2c1 (single isomer, unassigned; (+)) [listing 2 of 2 here]

pIC50 [1]: 6.85
SMILES: CN(C)CC1CC1c1ccc2ccccc2c1 (single isomer, unassigned; (-))

pIC50 [1]: 7.82
SMILES: CN(C)CC1CC1c1cccc2ccccc12 (stereo in doubt; 9b)

pIC50 [1]: 8.07
SMILES: CN(C)CC1CC1c1ccc2ccccc2c1 (stereo in doubt; 10b)

pIC50 [1]: 7.26
SMILES: CN(C)CC1CC1c1csc2ccccc12 (stereo in doubt; (+)-6) [listing 1 of 2 here]

inhibition [2]: 24% | inhibition [4]: 13%
SMILES: CN(C)CC1CC1c1csc2ccccc12 (stereo in doubt; (+)-6) [listing 2 of 2 here]

pIC50 [1]: 6.82
SMILES: CN(C)CC1CC1c1csc2ccccc12 (stereo in doubt; (-)-6)
